Source: patent US20260345524A1, “TARGETING KDM2A TO ENHANCE IMMUNE RESPONSIVENESS TO CANCERS” (The Board of Trustees of the Leland Stanford Junior …, priority 2023, published 2026)

What was measured:
[1] = tested on: NSD1-inhibited MOC1 tumors; test: Luciferase expressing MOC1 tumors, EZH2 inhibitor treatment, bioluminescence imaging; type: in vivo, mouse (B6 wild type); details: 200 mg/kg daily, luminescence day 10
Protocol: FIG. 14. Luciferase expressing MOC1 cells, transduced with scramble control shRNA, NSD1 shRNA, or both NSD1 shRNA and KDM2A shRNA, were injected to B6 wild type mice subcutaneously. The mice were treated 24 hours later with or without EZH2 inhibitor (EPZ-6438) at a dose of 200 mg/kg daily, with or without anti-PD-1 antibody (200 μg/mouse). Bioluminescence imaging was used to assess tumor burden; quantified luminescence signal on day 10 is shown in photons per second. *p<0.05.

KDM2A [2] = details: cited from earlier work
[3] = tested on: other JmjC lysine demethylases; details: KDM2A/7A versus other JmjC lysine demethylases; cited from earlier work
methyl transferases = details: cited from earlier work
[4] = tested on: histone acetyl transferases; details: cited from earlier work
[5] = not told; cited from earlier work
FaDu tumor spheroids = test: Spheroid T cell infiltration assay, CD19-CAR T cells co-cultured with CD19-expressing tumor spheroids; type: cell-based, human; details: daminozide 1.5 μM, added the day before T cells; 3 days co-culture
From the text: FIG. 3A-3G. KDM2A inhibition reverses the immune cold phenotype induced by NSD1 inactivation and induces T cell infiltration into the tumor microenvironment. (A) Overview and illustration of experiment workflow. Tumor spheroids were established from HNSCC tumor cells transfected to express truncated CD19 on the cell surface and grown in submerged Matrigel. The spheroids were co-cultured with CD19-CAR-T cells for three days and then isolated for analysis by confocal microscopy. (B) Assessment by qRT-PCR of CXCL9 and CXCL10 expression after CXCL9 or CXCL10 overexpression (OE) in FaDu cells transduced to express shRNA targeting NSD1 (NSD1-sh). (C) Representative images of tumor spheroids after co-cultured with CD19-CAR-T cells for 3 days. Ctrl=vector control; NSD1-sh=shRNA targeting NSD1; CXCL9-OE=overexpression construct for CXCL9; CXCL10-OE=overexpression construct for CXCL10; KDM2A-sh=shRNA targeting KDM2A. Scale bar=50 um. (D) Representative images of tumor spheroids stained with anti-CD3 antibody (red) and DAPI (blue). […] (E) Quantification of CD3+ cells per 100 cells in the spheroids. […] (G) Quantification of CD3^+ cells per 100 cells in the spheroids. […]
Spheroid T cellinfiltration assay. […] After 3 days of co-culture, the spheroid Matrigel domes were harvested and analyzed by microscopy. […] The stained samples were mounted on glass slides and analyzed by LSM700 confocal microscopy (Zeiss). […]

KDM2A [6] = details: cited from earlier work; remark: listed apart in the source
CTLA4 = details: cited from earlier work
CTLA-4 = details: cited from earlier work
HNSCC = details: human, in vivo; cited from earlier work
HPV-unrelated HNSCC = test: neoadjuvant pembrolizumab phase II window-of-opportunity trial (NCT02296684); type: in vivo, human
Protocol: FIGS. 1A-1D: NSD1 inactivation downregulates the expression of CXCL9 and CXCL10 in HNSCC. RNA expression and genomic sequencing data from a multicenter, phase II, window-of-opportunity trial (NCT02296684) (23) was examined for CXCL9 and CXCL10 expression and NSD1 mutations. In this trial, neoadjuvant pembrolizumab was administered to patients with locally advanced, resectable, HPV-unrelated HNSCC two to three weeks prior to definitive surgical resection. (A) Comparison of CXCL9 and CXCL10 baseline expression to pathologic tumor response (pTR), as defined in (23), to the anti-PD-1 antibody pembrolizumab. Circles represent responders. ▴ A represent non-responders with wild-type NSD1. Gray triangles represent non-responders with mutated NSD1. (B) Tumor histology from the two patients in the trial that had tumors with NSD1 mutations. Histology of NSD wild-type tumors is also shown. […]
CXCL9 and CXCL10 in human HNSCC datasets. […] The dataset was subsequently analyzed using Seurat (25): The series matrix was loaded into a Seurat object and was filtered to exclude poor quality or dying cells by removing cells with a mitochondrial genome fraction of 0.4 or greater as well as those with a unique feature count of fewer than 200 genes. […] Expression of CXCL9 and CXCL10 was analyzed within samples that had been profiled using whole exome sequencing, such that the NSD1 mutation status was known. […]

Molecule: CCN(c1cc(-c2ccc(CN3CCOCC3)cc2)cc(C(=O)NCc2c(C)cc(C)[nH]c2=O)c1C)C1CCOCC1 [EPZ-6438]
- tumor growth in WT mice (EZH2 inhibition) [1]: does reduce tumor growth in WT mice but not to the extent that KDM2A inhibition appeared to achieve

Molecule: CC(=O)N1c2ccccc2[C@@](C#N)(c2ccccc2)[C@@H]1c1cncc(CCCCCCCN2CCCC2)c1 [KDM2A/7A-IN-1]
- IC50 (KDM2A [2]): 160 nM
- selectivity over other JmjC lysine demethylases [3]: 75 fold
- activity on methyl transferases (methyl transferases): inactive
- activity on histone acetyl transferases [4]: inactive
- cell permeability [5]: cell-permeable

Molecule: CN(C)NC(=O)CCC(=O)O [daminozide]
- T cell infiltration into tumor spheroids (CD3+ cells per 100 cells) (FaDu tumor spheroids): increased the number of infiltrating T cells into tumor spheroids
- effect on KDM2A histone demethylation (KDM2A [6]): significantly abrogate the effect of KDM2A on histone demethylation

Molecule: Tremelimumab: fully humanized CTLA4 antibody
- toxicity (CTLA4; 10 mg/kg monthly vs 15 mg/kg every 3 months, phase II): toxicity was doubled
- sustained plasma level in the majority of responders (CTLA4; at one month): > 30 µg/mL
- dose at which objective responses were evident (CTLA4; single antibody infusion, 0.01 mg/kg to 15 mg/kg): ≥ 3 mg/kg

Molecule: ipilimumab: fully humanized CTLA4 antibody
- grade III/IV enterocolitis (CTLA-4; 10 mg/kg): ~ 15%
- hepatitis (CTLA-4; additional irAEs): 5-10%
- hypophysitis (CTLA-4; additional irAEs): 5%
- leucopenia (CTLA-4; additional irAEs): < 2%
- pancreatitis (CTLA-4; additional irAEs): < 2%
- rash/pruritus (CTLA-4; additional irAEs): > 50%
- uveitis (CTLA-4; additional irAEs): < 2%

Molecule: nivolumab: anti-PD-1 antibody
- clinical response in recurrent/metastatic HNSCC (HNSCC): impressive responses in recurrent/metastatic HNSCC, though only in a minority of patients

Molecule: pembrolizumab: anti-PD-1 antibody
- response of tumors with low CXCL9 or CXCL10 expression (HPV-unrelated HNSCC; neoadjuvant, two to three weeks prior to surgery): None of the tumors with low CXCL9 or CXCL10 expression exhibited response
- response of patients with NSD1 inactivating mutations (HPV-unrelated HNSCC; two patients): Both were non-responders
- clinical response in recurrent/metastatic HNSCC (HNSCC): impressive responses in recurrent/metastatic HNSCC, though only in a minority of patients
